Experimental data taken from patent publication US20020137929A1, “1 - (3-heterocyclylphenyl) isothiourea, -isourea, -guanidine and -amidine herbicidal agents” (Intellectual Property Department, BASF Aktiengesellschaft, priority 1998, published 2002).

What was measured:
CYPSE (Flatsedge) = assay: Preemergence weed control under flooded paddy conditions; assay type: in vivo, Cyperus serotinus; details: 0.2500 kg/ha, rated 3-4 weeks after treatment
Procedure, shortened: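 Greenhouse paddy assay. Acetone/water (50/50 v/v) solutions dosed into flood water, equivalent to about 0.0313 to 0.500 kg/ha active ingredient, over seeds planted 0.5 cm deep in silt loam. Score: 0-9 visual, based on stand, vigor, malformation, size and chlorosis, 3 to 4 weeks after treatment.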

ABUTH (Velvetleaf) = assay: Postemergence herbicidal evaluation; assay type: in vivo, Abutilon theophrasti; details: postemergence
Procedure, shortened: (§1)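 Seedlings grown about two weeks were sprayed at 40 psi with compound dispersed in 50/50 acetone/water plus 0.5% TWEEN 20, at about 0.0156 to 0.500 kg/ha. Plants were kept in the greenhouse and scored 4–5 weeks later on a 0–9 visual scale against untreated controls.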

[1] = system: CHEAL (Lambsquarters, Common); assay: Preemergence herbicidal evaluation; assay type: in vivo, Chenopodium album; details: rated 4-5 weeks after treatment, rating scale 0-9
Procedure, shortened: (§2)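 Each species is sown separately in potting soil over roughly an inch of soil before any emergence. The soil surface then receives an aqueous acetone spray delivering about 0.0156 to 0.500 kg/ha of compound. After four to five weeks, injury is scored from 0 to 9 relative to a control.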

AMBEL (Ragweed, Common) [2] = assay: Postemergence herbicidal evaluation; assay type: in vivo, Ambrosia artemisifolia; details: postemergence
Procedure, shortened: as §1

ORYSAT (Rice, Tebonnet) = assay: Postemergence herbicidal evaluation; assay type: in vivo, Oryza sativa, (L.) Tebonnet; details: postemergence
Procedure, shortened: as §1

[3] = system: GLXMAW (Soybean, Williams); assay: Postemergence herbicidal evaluation; assay type: in vivo, Glycine max, (L.) Merr. cv Williams; details: postemergence
Procedure, shortened: as §1

ZEAMX (Corn, Field) = assay: Postemergence herbicidal evaluation; assay type: in vivo, Zea mays; details: postemergence
Procedure, shortened: as §1

[4] = system: CHEAL (Lambsquarters, Common); assay: Postemergence herbicidal evaluation; assay type: in vivo, Chenopodium album; details: postemergence
Procedure, shortened: as §1

GALAP (Galium) = assay: Preemergence herbicidal evaluation; assay type: in vivo, Galium aparine; details: rated 4-5 weeks after treatment, rating scale 0-9
Procedure, shortened: as §2

AMBEL (Ragweed, Common) [5] = assay: Preemergence herbicidal evaluation; assay type: in vivo, Ambrosia artemisifolia; details: rated 4-5 weeks after treatment, rating scale 0-9
Excerpt: Results of herbicide evaluation are expressed on a rating scale (0-9). The scale is based upon a visual observation of plant stand, vigor, malformation, size, chlorosis and overall plant appearance as compared with a control.
The preemergence herbicidal activity of the test compounds of the present invention is exemplified by the following tests in which the seeds of a variety of monocotyledonous and dicotyledonous plants are separately mixed with potting soil and planted on top of approximately one inch of soil in separate pint cups. After planting, the cups are sprayed with the selected aqueous acetone solution containing test compound in sufficient quantity to provide the equivalent of about 0.0156 to 0.500 kg per hectare of test compound per cup. The treated cups are then placed on greenhouse benches, watered and cared for in accordance with conventional greenhouse procedures. From four to five weeks after treatment, the tests are terminated and each cup is examined and rated according to the rating system provided in Example 37.
The compounds evaluated are reported by compound number given in Example 37.

CASOB (Sicklepod) = assay: Preemergence herbicidal evaluation; assay type: in vivo, Cassia obtusifolia; details: rated 4-5 weeks after treatment, rating scale 0-9
Procedure, shortened: as §2

ECHCG (Barnyardgrass) = assay: Postemergence herbicidal evaluation; assay type: in vivo, Echinochloa crus-galli; details: postemergence
Procedure, shortened: as §1

## Cc1ccc(CN2C(=O)CSC2=Nc2cc(-n3c(=O)cc(C(F)(F)F)n(C)c3=O)c(F)cc2Cl)cc1C [Compound 147, 3-{4-Chloro-5-{[3-(3,4-dimethylbenzyl)-4-oxo-2-thiazolidinylidene]amino}-2-fluorophenyl}-1-methyl-6-(trifluoromethyl)-2,4(1H,3H)-pyrimidinedione]
CYPSE (Flatsedge)
  herbicidal effect rating, CYPSE: 0.0
ABUTH (Velvetleaf); rate 0.0156 kg/ha
  herbicidal rating ABUTH: 9.0
ABUTH (Velvetleaf); rate 0.0313 kg/ha
  herbicidal rating ABUTH: 9.0
ABUTH (Velvetleaf); rate 0.0625 kg/ha
  herbicidal rating ABUTH: 9.0
[1]; rate 0.0156 kg/ha
  Preemergence herbicidal rating CHEAL: 0.0
[1]; rate 0.0313 kg/ha
  Preemergence herbicidal rating CHEAL: 0.0
[1]; rate 0.0625 kg/ha
  Preemergence herbicidal rating CHEAL: 6.0
[1]; rate 0.1250 kg/ha
  Preemergence herbicidal rating CHEAL: 9.0
[1]; rate 0.2500 kg/ha
  Preemergence herbicidal rating CHEAL: 9.0
AMBEL (Ragweed, Common) [2]; rate 0.0156 kg/ha
  herbicidal rating AMBEL: 6.0
AMBEL (Ragweed, Common) [2]; rate 0.0313 kg/ha
  herbicidal rating AMBEL: 9.0
AMBEL (Ragweed, Common) [2]; rate 0.0625 kg/ha
  herbicidal rating AMBEL: 7.0
ORYSAT (Rice, Tebonnet); rate 0.0156 kg/ha
  herbicidal rating ORYSAT: 1.5
ORYSAT (Rice, Tebonnet); rate 0.0313 kg/ha
  herbicidal rating ORYSAT: 2.5
ORYSAT (Rice, Tebonnet); rate 0.0625 kg/ha
  herbicidal rating ORYSAT: 3.5
[3]; rate 0.0156 kg/ha
  herbicidal rating GLXMAW: 5.5
[3]; rate 0.0313 kg/ha
  herbicidal rating GLXMAW: 5.5
[3]; rate 0.0625 kg/ha
  herbicidal rating GLXMAW: 6.0
ZEAMX (Corn, Field); rate 0.0156 kg/ha
  herbicidal rating ZEAMX: 4.0
ZEAMX (Corn, Field); rate 0.0313 kg/ha
  herbicidal rating ZEAMX: 4.5
ZEAMX (Corn, Field); rate 0.0625 kg/ha
  herbicidal rating ZEAMX: 4.5
[4]; rate 0.0156 kg/ha
  herbicidal rating CHEAL: 5.0
[4]; rate 0.0313 kg/ha
  herbicidal rating CHEAL: 6.0
[4]; rate 0.0625 kg/ha
  herbicidal rating CHEAL: 9.0
GALAP (Galium); rate 0.0156 kg/ha
  Preemergence herbicidal rating GALAP: 0.0
GALAP (Galium); rate 0.0313 kg/ha
  Preemergence herbicidal rating GALAP: 0.0
GALAP (Galium); rate 0.0625 kg/ha
  Preemergence herbicidal rating GALAP: 0.0
GALAP (Galium); rate 0.1250 kg/ha
  Preemergence herbicidal rating GALAP: 1.0
GALAP (Galium); rate 0.2500 kg/ha
  Preemergence herbicidal rating GALAP: 1.0
AMBEL (Ragweed, Common) [5]; rate 0.0156 kg/ha
  Preemergence herbicidal rating AMBEL: 0.0
AMBEL (Ragweed, Common) [5]; rate 0.0313 kg/ha
  Preemergence herbicidal rating AMBEL: 0.0
AMBEL (Ragweed, Common) [5]; rate 0.0625 kg/ha
  Preemergence herbicidal rating AMBEL: 0.0
AMBEL (Ragweed, Common) [5]; rate 0.1250 kg/ha
  Preemergence herbicidal rating AMBEL: 1.0
AMBEL (Ragweed, Common) [5]; rate 0.2500 kg/ha
  Preemergence herbicidal rating AMBEL: 4.0
CASOB (Sicklepod); rate 0.0156 kg/ha
  Preemergence herbicidal rating CASOB: 0.0
CASOB (Sicklepod); rate 0.0313 kg/ha
  Preemergence herbicidal rating CASOB: 0.0
CASOB (Sicklepod); rate 0.0625 kg/ha
  Preemergence herbicidal rating CASOB: 0.0
CASOB (Sicklepod); rate 0.1250 kg/ha
  Preemergence herbicidal rating CASOB: 0.0
CASOB (Sicklepod); rate 0.2500 kg/ha
  Preemergence herbicidal rating CASOB: 5.0
ECHCG (Barnyardgrass); rate 0.0156 kg/ha
  herbicidal rating ECHCG: 1.0
ECHCG (Barnyardgrass); rate 0.0313 kg/ha
  herbicidal rating ECHCG: 2.0
ECHCG (Barnyardgrass); rate 0.0625 kg/ha
  herbicidal rating ECHCG: 1.0

## COc1ccc(CN2C(=O)CSC2=Nc2cc(-n3c(=O)cc(C(F)(F)F)n(C)c3=O)c(F)cc2Cl)cc1OC [Compound 134, 3-{4-Chloro-5-{[3-(3,4-dimethoxybenzyl)-4-oxo-2-thiazolidinylidene]amino}-2-fluorophenyl}-1-methyl-6-(trifluoromethyl)-2,4(1H,3H)-pyrimidinedione]
ABUTH (Velvetleaf); rate 0.0156 kg/ha
  herbicidal rating ABUTH: 5.0
ABUTH (Velvetleaf); rate 0.0313 kg/ha
  herbicidal rating ABUTH: 7.0
ABUTH (Velvetleaf); rate 0.0625 kg/ha
  herbicidal rating ABUTH: 9.0
[1]; rate 0.1250 kg/ha
  Preemergence herbicidal rating CHEAL: 9.0
[1]; rate 0.2500 kg/ha
  Preemergence herbicidal rating CHEAL: 9.0
AMBEL (Ragweed, Common) [2]; rate 0.0156 kg/ha
  herbicidal rating AMBEL: 3.0
AMBEL (Ragweed, Common) [2]; rate 0.0313 kg/ha
  herbicidal rating AMBEL: 4.0
AMBEL (Ragweed, Common) [2]; rate 0.0625 kg/ha
  herbicidal rating AMBEL: 7.0
ORYSAT (Rice, Tebonnet); rate 0.0156 kg/ha
  herbicidal rating ORYSAT: 1.0
ORYSAT (Rice, Tebonnet); rate 0.0313 kg/ha
  herbicidal rating ORYSAT: 1.5
ORYSAT (Rice, Tebonnet); rate 0.0625 kg/ha
  herbicidal rating ORYSAT: 2.0
[3]; rate 0.0156 kg/ha
  herbicidal rating GLXMAW: 3.5
[3]; rate 0.0313 kg/ha
  herbicidal rating GLXMAW: 4.0
[3]; rate 0.0625 kg/ha
  herbicidal rating GLXMAW: 5.0
ZEAMX (Corn, Field); rate 0.0156 kg/ha
  herbicidal rating ZEAMX: 3.5
ZEAMX (Corn, Field); rate 0.0313 kg/ha
  herbicidal rating ZEAMX: 4.5
ZEAMX (Corn, Field); rate 0.0625 kg/ha
  herbicidal rating ZEAMX: 4.5
[4]; rate 0.0156 kg/ha
  herbicidal rating CHEAL: 1.0
[4]; rate 0.0313 kg/ha
  herbicidal rating CHEAL: 3.0
[4]; rate 0.0625 kg/ha
  herbicidal rating CHEAL: 4.0
GALAP (Galium); rate 0.1250 kg/ha
  Preemergence herbicidal rating GALAP: 1.0
GALAP (Galium); rate 0.2500 kg/ha
  Preemergence herbicidal rating GALAP: 0.0
AMBEL (Ragweed, Common) [5]; rate 0.1250 kg/ha
  Preemergence herbicidal rating AMBEL: 0.0
AMBEL (Ragweed, Common) [5]; rate 0.2500 kg/ha
  Preemergence herbicidal rating AMBEL: 3.0
CASOB (Sicklepod); rate 0.1250 kg/ha
  Preemergence herbicidal rating CASOB: 0.0
CASOB (Sicklepod); rate 0.2500 kg/ha
  Preemergence herbicidal rating CASOB: 1.0
ECHCG (Barnyardgrass); rate 0.0156 kg/ha
  herbicidal rating ECHCG: 0.0
ECHCG (Barnyardgrass); rate 0.0313 kg/ha
  herbicidal rating ECHCG: 2.0
ECHCG (Barnyardgrass); rate 0.0625 kg/ha
  herbicidal rating ECHCG: 1.0
